Test results from KR20230003036A, “렌바티닙 메실레이트의 결정형 xi 및 이의 제조방법” (청두 이스턴 바이오파마슈티컬 컴퍼니 리미티드, priority 2020, dated 2021).

Legend:
[1] = Powder flowability experiment (tap density, compression coefficient); assay type: physicochemical
[2] = Crystal form stability under storage conditions (XRD, day 0 vs day 30); assay type: physicochemical; settings: storage conditions of Table 3 (high temperature 60℃, high humidity 92.5%, high humidity 75%, light irradiation), sample of Example 11
in vivo = settings: rat, po, 1.25 mg/kg
[3] = Hygroscopicity experiment of crystalline form XI (DVS, dynamic vapour sorption); assay type: physicochemical; settings: 25℃, sample of Example 1
[4] = Impurity stability under storage conditions (HPLC purity after 30 days); assay type: physicochemical; settings: high temperature 60℃, high humidity 92.5%, high humidity 75% and light irradiation, sample of Example 11
[5] = Dissolution experiment of crystalline form XI capsules (paddle method, pH 4.0 medium); assay type: physicochemical; settings: capsules of form XI (Example 12), 900ml, 37℃, 75r/min, UV 250nm

Compound | compression coefficient (comparison) ([1]; compression coefficient (%) = 100% (tap density - bulk density)/tap density, form C (made according to CN100569753C) vs form XI (Example 12)) | flowability (comparison) ([1]; form XI (Example 12) vs form C (made according to CN100569753C)) | change of crystal form (XRD pattern) [2] | AUC(0-t) at 24 h (in vivo) [ng·h/mL] | Cmax (in vivo) [ng/mL] | Tmax (in vivo) [h] | weight loss ([3]; relative humidity 0~40%) [%] | weight gain by moisture absorption ([3]; relative humidity 40~80%) [%] | change of purity (HPLC) [4] | time at which dissolution is basically complete [5] [min]
COc1cc2nccc(Oc3ccc(NC(=O)NC4CC4)c(Cl)c3)c2cc1C(N)=O [결정형 C, 렌바티닙 메실레이트] | 결정형 XI의 압축 계수보다 훨씬 더 높으며 | – | – | – | – | – | – | – | – | –
COc1cc2nccc(Oc3ccc(NC(=O)NC4CC4)c(Cl)c3)c2cc1C(N)=O [결정형 XI, 렌바티닙 메실레이트, 메실레이트 이수화물] | – | 결정형 C의 유동성보다 훨씬 우수하며 | 결정형 변화가 없었다 | 22900 ± 2840 | 2290 ± 216 | 4 ± 1.73 | ~0.33 | ~0.25 | 큰 변화가 없었다 | ~120
